Consider 15 compounds from PubChem BioAssay (NCI).

SMILES strings stand for the structures.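 Five compound concentrations were applied to cells in 96-well plates for 48 hours; endpoints were derived by simple linear interpolation of the resulting dose-response curve. The concentration for 50% growth inhibition is given as GI50. TGI is the concentration that stops growth completely.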 A value given as a limit tells only on which side of the number the result lay.

Some test systems named below: 786-0 renal; HCC-2998 colon; IGROV1 ovarian; KM12 colon; M14 melanoma; NCI-H23 lung; OVCAR-5 ovarian; OVCAR-8 ovarian; RXF 393 renal; SF-295 CNS; SK-MEL-5 melanoma; SNB-19 CNS; SW-620 colon; UACC-257 melanoma; UACC-62 melanoma; TK-10 renal.
Holding throughout (test): NCI anticancer screen, dose series, 48 h

As to `COc1nc2c(c(=O)n1C)N=C(c1ccccc1)[C@H](C(CC(=O)c1ccccc1)c1ccccc1)C(c1ccccc1)N2` (some centres undefined), the TGI in the assay on 786-0 renal, in the assay on HCC-2998 colon, in the assay on IGROV1 ovarian, with KM12 colon, with M14 melanoma and in the assay on NCI-H23 lung was greater than 100 µM throughout. Moreover, the TGI in the assay with OVCAR-5 ovarian, in the assay with OVCAR-8 ovarian, in the assay on RXF 393 renal, in the assay on SF-295 CNS, in the assay with SK-MEL-5 melanoma and in the assay on SNB-19 CNS was greater than 100 µM in each case. Also, the TGI with SW-620 colon, in the assay with UACC-257 melanoma and with UACC-62 melanoma was greater than 100 µM each time.
Take `O=S(=O)(SC1=NCCN1)c1cccc2ccccc12`: the TGI in the assay with 786-0 renal is 74.9 µM; in the assay on HCC-2998 colon it was greater than 10 µM; in the assay on IGROV1 ovarian it was 89.9 µM; with KM12 colon it was 45.1 µM; in the assay on M14 melanoma it was greater than 100 µM; in the assay with NCI-H23 lung, 91.2 µM. The TGI is 93.5 µM with OVCAR-5 ovarian; greater than 100 µM with OVCAR-8 ovarian; 71.8 µM in the assay on RXF 393 renal; 51.2 µM in the assay with SF-295 CNS; 43 µM in the assay with SK-MEL-5 melanoma; 83.7 µM with SNB-19 CNS. The TGI in the assay with SW-620 colon, in the assay with UACC-257 melanoma and in the assay with UACC-62 melanoma was greater than 100 µM each time.
On to `O=C(O)[C@H](Cc1ccccc1)NCCN1CCC[C@H]1C(=O)O`, for which the TGI in the assay on 786-0 renal, in the assay on KM12 colon, in the assay with M14 melanoma, in the assay on NCI-H23 lung, in the assay with OVCAR-5 ovarian and in the assay on OVCAR-8 ovarian was greater than 100 µM each time. The TGI in the assay with RXF 393 renal, in the assay with SF-295 CNS, in the assay with SK-MEL-5 melanoma, with SNB-19 CNS, with SW-620 colon and in the assay on UACC-62 melanoma was greater than 100 µM each time.
For the compound `CN1C(=O)C(O)CC1c1ccccc1C(F)(F)F` (centres undefined), the TGI with 786-0 renal, in the assay on HCC-2998 colon, in the assay on IGROV1 ovarian, with KM12 colon, in the assay with M14 melanoma and in the assay on NCI-H23 lung was greater than 100 µM throughout. In addition, the TGI with OVCAR-5 ovarian, with OVCAR-8 ovarian, in the assay on RXF 393 renal, with SF-295 CNS, in the assay with SK-MEL-5 melanoma and in the assay on SNB-19 CNS was greater than 100 µM throughout. For the same compound, the TGI in the assay on SW-620 colon, with UACC-257 melanoma and with UACC-62 melanoma was greater than 100 µM throughout.
With `C=CCN1/C(=C2\SC(=S)N(c3ccc(C)cc3)C2=O)Sc2c1nc[nH]c2=O`, the TGI in the assay on 786-0 renal, in the assay on IGROV1 ovarian, in the assay with M14 melanoma, in the assay with NCI-H23 lung, in the assay on OVCAR-5 ovarian and with OVCAR-8 ovarian was greater than 100 µM in each case. Besides, the TGI in the assay with RXF 393 renal, in the assay with SF-295 CNS, with SK-MEL-5 melanoma, with SNB-19 CNS, with SW-620 colon and in the assay on TK-10 renal was greater than 100 µM throughout. The TGI in the assay on UACC-257 melanoma and in the assay on UACC-62 melanoma was greater than 100 µM throughout.
As to `CCOC(OCC)N1C(=O)C2(C(OCC)OCC)CC3C(OC(=O)N3N)c3cccc1c32` (centres undefined), the TGI with 786-0 renal, in the assay with HCC-2998 colon, in the assay on IGROV1 ovarian, in the assay with KM12 colon, in the assay with NCI-H23 lung and in the assay with OVCAR-5 ovarian was greater than 100 µM throughout. The TGI in the assay with OVCAR-8 ovarian, in the assay with RXF 393 renal, in the assay on SF-295 CNS, in the assay on SK-MEL-5 melanoma, in the assay with SNB-19 CNS and with SW-620 colon was greater than 100 µM in each case. For the same compound, the TGI in the assay with TK-10 renal, in the assay on UACC-257 melanoma and with UACC-62 melanoma was greater than 100 µM in each case.
Turning to `O=C(NNC(=S)NCc1ccccc1)c1csc(NC(=S)NC2CCCCC2)n1`, the TGI in the assay with 786-0 renal, with HCC-2998 colon, with IGROV1 ovarian, in the assay with KM12 colon, in the assay on M14 melanoma and in the assay with NCI-H23 lung was greater than 100 µM throughout. Further, the TGI was greater than 100 µM with OVCAR-5 ovarian; greater than 100 µM in the assay with OVCAR-8 ovarian; greater than 100 µM in the assay with SF-295 CNS; 28.2 µM in the assay with SK-MEL-5 melanoma; greater than 100 µM with SNB-19 CNS; greater than 100 µM in the assay with SW-620 colon. Besides, the TGI is greater than 100 µM in the assay on TK-10 renal, 43 µM in the assay on UACC-257 melanoma and greater than 100 µM in the assay with UACC-62 melanoma.
On to `COC(=O)C(Br)C1CCc2ccccc21` (centres undefined), for which the TGI in the assay on 786-0 renal, in the assay with HCC-2998 colon, in the assay with IGROV1 ovarian, with M14 melanoma, in the assay with NCI-H23 lung and in the assay with OVCAR-5 ovarian was greater than 100 µM throughout. Besides, the TGI with OVCAR-8 ovarian, with SF-295 CNS, in the assay with SK-MEL-5 melanoma, in the assay with SNB-19 CNS, in the assay with SW-620 colon and in the assay on TK-10 renal was greater than 100 µM throughout. Moreover, the TGI in the assay on UACC-257 melanoma and with UACC-62 melanoma was greater than 100 µM throughout.
Consider `CCOC(=O)c1cc(Br)c(-c2cc(C)no2)[nH]1`, for which the TGI is greater than 100 µM with 786-0 renal; 24.7 µM in the assay on KM12 colon; greater than 100 µM with M14 melanoma; greater than 100 µM with NCI-H23 lung; greater than 100 µM in the assay with OVCAR-5 ovarian; greater than 100 µM in the assay on OVCAR-8 ovarian. Also, the TGI was greater than 100 µM with RXF 393 renal; greater than 100 µM with SF-295 CNS; 47.5 µM in the assay on SK-MEL-5 melanoma; greater than 100 µM in the assay on SNB-19 CNS; greater than 100 µM in the assay with SW-620 colon; greater than 100 µM in the assay with TK-10 renal. Besides, the TGI with UACC-257 melanoma and in the assay on UACC-62 melanoma was greater than 100 µM each time.
As for `COc1ccc(/C(=C/n2ccnc2)C(O)c2ccc(OC)c(OC)c2)cc1OC` (centres undefined), the TGI in the assay with 786-0 renal, with IGROV1 ovarian, in the assay on KM12 colon, in the assay with M14 melanoma, with NCI-H23 lung and in the assay with OVCAR-5 ovarian was greater than 100 µM throughout. In addition, the TGI in the assay on OVCAR-8 ovarian, in the assay with RXF 393 renal, in the assay with SF-295 CNS, in the assay with SNB-19 CNS, in the assay with SW-620 colon and with TK-10 renal was greater than 100 µM throughout. In addition, the TGI with UACC-257 melanoma is greater than 100 µM.
Consider `C/C=C1\CN2CCc3c([nH]c4ccccc34)C2C=C1CCO` (centres undefined), for which the TGI in the assay with 786-0 renal, in the assay with HCC-2998 colon, in the assay with IGROV1 ovarian, with KM12 colon, in the assay with NCI-H23 lung and in the assay with OVCAR-5 ovarian was greater than 340 µM throughout. The TGI in the assay on OVCAR-8 ovarian, in the assay on RXF 393 renal, in the assay on SF-295 CNS, in the assay on SK-MEL-5 melanoma, with SNB-19 CNS and in the assay on SW-620 colon was greater than 340 µM throughout. Moreover, the TGI in the assay with TK-10 renal, in the assay on UACC-257 melanoma and with UACC-62 melanoma was greater than 340 µM in each case.
`O=c1cc(-c2ccco2)[nH]c2cc3c(cc12)OCO3`: the TGI in the assay with 786-0 renal is greater than 100 µM; with HCC-2998 colon it was greater than 100 µM; in the assay with IGROV1 ovarian it was greater than 100 µM; in the assay with NCI-H23 lung it was greater than 100 µM; with RXF 393 renal, 92.8 µM; in the assay on SF-295 CNS, greater than 100 µM. Moreover, the TGI in the assay on SK-MEL-5 melanoma, in the assay on SNB-19 CNS, in the assay with SW-620 colon, with TK-10 renal, in the assay with UACC-257 melanoma and with UACC-62 melanoma was greater than 100 µM throughout. The GI50 with RXF 393 renal is 24.9 µM; in the assay on SF-295 CNS, 28.1 µM; in the assay on SK-MEL-5 melanoma, 13.4 µM.
With `Nc1ccc(C23CC4CC(C2)CC(c2ccc(N)cc2)(C4)C3)cc1`, the TGI is greater than 100 µM with 786-0 renal; 78.6 µM in the assay on HCC-2998 colon; greater than 100 µM with IGROV1 ovarian; greater than 100 µM with KM12 colon; 85.5 µM with M14 melanoma; greater than 100 µM in the assay with NCI-H23 lung. The TGI in the assay on OVCAR-5 ovarian was 61.4 µM; with OVCAR-8 ovarian it was greater than 100 µM; in the assay on SK-MEL-5 melanoma it was 26.9 µM; in the assay with SNB-19 CNS, greater than 100 µM; in the assay on SW-620 colon, 28 µM; in the assay on TK-10 renal, greater than 100 µM. In addition, the TGI in the assay with UACC-257 melanoma and in the assay with UACC-62 melanoma was greater than 100 µM throughout.
As to `CCc1cc(CCC(=O)Nc2ccccc2[N+](=O)[O-])[nH]c(=S)n1`, the TGI with 786-0 renal, with IGROV1 ovarian, in the assay with KM12 colon, with M14 melanoma, in the assay on NCI-H23 lung and with OVCAR-5 ovarian was greater than 100 µM in each case. The TGI with OVCAR-8 ovarian, in the assay with RXF 393 renal, in the assay with SF-295 CNS, in the assay with SNB-19 CNS, with SW-620 colon and with TK-10 renal was greater than 100 µM each time. Further, the TGI with UACC-257 melanoma and in the assay on UACC-62 melanoma was greater than 100 µM in each case.
On to `CN(C)c1nncc2n[nH]nc12`, for which the TGI with 786-0 renal, in the assay on HCC-2998 colon, in the assay on IGROV1 ovarian, with KM12 colon, with M14 melanoma and in the assay with NCI-H23 lung was greater than 100 µM in each case. The TGI in the assay with OVCAR-5 ovarian, in the assay on OVCAR-8 ovarian, in the assay with SF-295 CNS, in the assay on SK-MEL-5 melanoma, with SW-620 colon and with TK-10 renal was greater than 100 µM each time. In addition, the TGI in the assay with UACC-257 melanoma and in the assay with UACC-62 melanoma was greater than 100 µM each time.
